The text below walks through data of ChEMBL document CHEMBL1629435, “Novel insights into the use of Glowing LNA as nucleic acid detection probes--influence of labeling density and nucleobases” (Bioorg Med Chem Lett, 2010).

As usually defined, the Tm is the temperature at the midpoint of the melting transition. In general, ΔTm refers to the change in melting temperature against a reference sample.

Holding throughout (type): nucleic-acid assay
Assay [1] has as its system Nucleic Acid. The experiment in a line: Binding affinity to AAA TAT ATA GTG C DNA sequence assessed as melting temperature by thermal denaturation assay.
Assay [2] deals with Nucleic Acid. Description: Binding affinity to AAA UAU AUA GUG C RNA sequence assessed as melting temperature by thermal denaturation assay.
For assay [3], the system named is Nucleic Acid. The experiment in a line: Binding affinity to AAA TAT ATA GTG C DNA sequence assessed as change in melting temperature by thermal denaturation assay.
In assay [4] the test system is Nucleic Acid. The experiment in a line: Binding affinity to AAA UAU AUA GUG C RNA sequence assessed as change in melting temperature by thermal denaturation assay.
Assay [5] has as its system Nucleic Acid. The experiment in a line: Binding affinity to AAA TAT ATA GTG DNA sequence by fluorescence emission spectrum analysis.
Assay [6] concerns Nucleic Acid. The experiment in a line: Binding affinity to AAA UAU AUA GUG C RNA sequence by fluorescence emission spectrum analysis.
In assay [7] the test system is Nucleic Acid. Description: Binding affinity to CGT AGA GTG DNA sequence assessed as melting temperature by thermal denaturation assay.
Assay [8] deals with Nucleic Acid. The experiment in a line: Binding affinity to CGU AGA GUG RNA sequence assessed as melting temperature by thermal denaturation assay.
The test system of assay [9] is Nucleic Acid. Description: Binding affinity to CGT AGA GTG DNA sequence assessed as change in melting temperature by thermal denaturation assay.
Assay [10] relates to Nucleic Acid. The experiment in a line: Binding affinity to CGU AGA GUG RNA sequence assessed as change in melting temperature by thermal denaturation assay.
Assay [11] concerns Nucleic Acid. Description: Binding affinity to CGT AAA GTG DNA sequence assessed as change in melting temperature by thermal denaturation assay.
Assay [12] has as its system Nucleic Acid. Description: Binding affinity to CGT ACA GTG DNA sequence assessed as change in melting temperature by thermal denaturation assay.
The subject of assay [13] is Nucleic Acid. Description: Binding affinity to CGT ATA GTG DNA sequence assessed as change in melting temperature by thermal denaturation assay.
Assay [14] concerns Nucleic Acid. The experiment in a line: Binding affinity to CGU AAA GUG RNA sequence assessed as change in melting temperature by thermal denaturation assay.
Assay [15] has as its system Nucleic Acid. The experiment in a line: Binding affinity to CGU ACA GUG RNA sequence assessed as change in melting temperature by thermal denaturation assay.
Assay [16] concerns Nucleic Acid. Description: Binding affinity to CGU AUA GUG RNA sequence assessed as change in melting temperature by thermal denaturation assay.

For the molecule `Cc1cn([C@@H]2O[C@@]3(COP(=O)(O)O[C@H]4[C@@H](O)[C@H](n5cnc6c(N)ncnc65)O[C@@H]4COP(=O)(O)O[C@H]4[C@@H]5[C@H](n6cc(C)c(=O)[nH]c6=O)O[C@@]4(COP(=O)(O)O[C@H]4C[C@H](n6cc(C)c(=O)[nH]c6=O)O[C@@H]4COP(=O)(O)O[C@H]4C[C@H](n6cc(C)c(=O)[nH]c6=O)O[C@@H]4COP(=O)(O)O)CN5C(=O)c4ccc5ccc6cccc7ccc4c5c67)CN(C(=O)c4ccc5ccc6cccc7ccc4c5c67)[C@@H]2[C@@H]3OP(=O)(O)OC[C@H]2O[C@@H](n3cnc4c(N)ncnc43)[C@H](O)[C@@H]2OP(=O)(O)OC[C@H]2O[C@@H](n3cc(C)c(=O)[nH]c3=O)C[C@@H]2OP(=O)(O)OC[C@H]2O[C@@H](n3cnc4c(N)ncnc43)[C@H](O)[C@@H]2OP(=O)(O)OC[C@H]2O[C@@H](n3cc(C)c(=O)[nH]c3=O)C[C@@H]2OP(=O)(O)OC[C@H]2O[C@@H](n3ccc(N)nc3=O)[C@H](O)[C@@H]2OP(=O)(O)OC[C@H]2O[C@@H](n3cnc4c(N)ncnc43)[C@H](O)[C@@H]2OP(=O)(O)OC[C@H]2O[C@@H](n3ccc(N)nc3=O)[C@H](O)[C@@H]2OP(=O)(O)OC[C@H]2O[C@@H](n3cnc4c(=O)[nH]c(N)nc43)[C@H](O)[C@@H]2O)c(=O)[nH]c1=O`, the Tm in assay [1] was 46.5 °C; in assay [2], 48 °C. Also, the ΔTm worked out at 6.5 °C in assay [3] and 8 °C in assay [4]. In addition, the fold change (FC) in assay [5] and in assay [6] was 3.5 each time.

In the case of `Cc1cn([C@@H]2O[C@@]3(COP(=O)(O)O[C@H]4C[C@H](n5cnc6c(N)ncnc65)O[C@@H]4COP(=O)(O)O[C@H]4C[C@H](n5cnc6c(=O)[nH]c(N)nc65)O[C@@H]4COP(=O)(O)O[C@H]4[C@H]5OC[C@]4(COP(=O)(O)O[C@H]4C[C@H](n6cnc7c(=O)[nH]c(N)nc76)O[C@@H]4CO)O[C@H]5n4cc(C)c(=O)[nH]c4=O)CO[C@@H]2[C@@H]3OP(=O)(O)OC[C@H]2O[C@@H](n3cnc4c(N)ncnc43)C[C@@H]2OP(=O)(O)OC[C@@]23CO[C@@H]([C@H](n4cc(C)c(=O)[nH]c4=O)O2)[C@@H]3OP(=O)(O)OC[C@H]2O[C@@H](n3cnc4c(=O)[nH]c(N)nc43)C[C@@H]2OP(=O)(O)OC[C@H]2O[C@@H](n3ccc(N)nc3=O)C[C@@H]2O)c(=O)[nH]c1=O`, the figures for the Tm in [1] and in assay [2] were 45.5 °C and 46.5 °C, respectively. Also, the ΔTm was determined as 6 °C in assay [3] and 7 °C in assay [4]. For the same molecule, the fold change (FC) in assay [5] and in assay [6] was 3.5 each time.

Take `Cc1cn([C@@H]2O[C@@]3(COP(=O)(O)O[C@H]4C[C@H](n5cc(C)c(=O)[nH]c5=O)O[C@@H]4COP(=O)(O)O[C@H]4[C@@H](O)[C@H](n5ccc(N)nc5=O)O[C@@H]4COP(=O)(O)O[C@H]4C[C@H](n5cc(C)c(=O)[nH]c5=O)O[C@@H]4COP(=O)(O)O[C@H]4[C@@H](O)[C@H](n5cnc6c(N)ncnc65)O[C@@H]4COP(=O)(O)O[C@H]4[C@@H](O)[C@H](n5ccc(N)nc5=O)O[C@@H]4COP(=O)(O)O[C@H]4[C@@H](O)[C@H](n5cnc6c(=O)[nH]c(N)nc65)O[C@@H]4COP(=O)(O)O)CN(C(=O)c4ccc5ccc6cccc7ccc4c5c67)[C@@H]2[C@@H]3OP(=O)(O)OC[C@H]2O[C@@H](n3cnc4c(N)ncnc43)[C@H](O)[C@@H]2OP(=O)(O)OC[C@H]2O[C@@H](n3ccc(N)nc3=O)[C@H](O)[C@@H]2O)c(=O)nc1N`: the Tm stood at 37 °C in assay [7] and 40 °C in [8]. Besides, the ΔTm in [9] was determined as 2.5 °C; in assay [10], 3.5 °C.

Turning to `Cc1cn([C@@H]2O[C@@]3(COP(=O)(O)O[C@H]4[C@@H](O)[C@H](n5cnc6c(=O)[nH]c(N)nc65)O[C@@H]4COP(=O)(O)O)CN(C(=O)c4ccc5ccc6cccc7ccc4c5c67)[C@@H]2[C@@H]3OP(=O)(O)OC[C@H]2O[C@@H](n3cnc4c(N)ncnc43)[C@H](O)[C@@H]2OP(=O)(O)OC[C@H]2O[C@@H](n3cc(C)c(=O)[nH]c3=O)C[C@@H]2OP(=O)(O)OC[C@@]23CN(C(=O)c4ccc5ccc6cccc7ccc4c5c67)[C@@H]([C@H](n4cc(C)c(N)nc4=O)O2)[C@@H]3OP(=O)(O)OC[C@H]2O[C@@H](n3cc(C)c(=O)[nH]c3=O)C[C@@H]2OP(=O)(O)OC[C@H]2O[C@@H](n3ccc(N)nc3=O)[C@H](O)[C@@H]2OP(=O)(O)OC[C@H]2O[C@@H](n3cnc4c(N)ncnc43)[C@H](O)[C@@H]2OP(=O)(O)OC[C@H]2O[C@@H](n3ccc(N)nc3=O)[C@H](O)[C@@H]2O)c(=O)nc1N`, the Tm stood at 45 °C in [7] and 47 °C in [8]. The thermal shift (ΔTm) is 5.5 °C in assay [9]; 5.5 °C in [10]; -27 °C in assay [11]; -30 °C in assay [12]; -32.5 °C in assay [13]. In addition, the fold change (FC) in assay [5] and in [6] was 3.6 each time.

Consider `Cc1cn([C@@H]2O[C@@]3(COP(=O)(O)O[C@H]4[C@@H](O)[C@H](n5cnc6c(=O)[nH]c(N)nc65)O[C@@H]4COP(=O)(O)O)CN(C(=O)c4ccc5ccc6cccc7ccc4c5c67)[C@@H]2[C@@H]3OP(=O)(O)OC[C@H]2O[C@@H](n3cnc4c(N)ncnc43)[C@H](O)[C@@H]2OP(=O)(O)OC[C@H]2O[C@@H](n3cc(C)c(=O)[nH]c3=O)C[C@@H]2OP(=O)(O)OC[C@@]23CN(C(=O)c4ccc5ccc6cccc7ccc4c5c67)[C@@H]([C@H](n4cc(C)c(N)nc4=O)O2)[C@@H]3OP(=O)(O)OC[C@H]2O[C@@H](n3cc(C)c(=O)[nH]c3=O)C[C@@H]2OP(=O)(O)OC[C@@]23CN(C(=O)c4ccc5ccc6cccc7ccc4c5c67)[C@@H]([C@H](n4cc(C)c(N)nc4=O)O2)[C@@H]3OP(=O)(O)OC[C@H]2O[C@@H](n3cnc4c(N)ncnc43)[C@H](O)[C@@H]2OP(=O)(O)OC[C@H]2O[C@@H](n3ccc(N)nc3=O)[C@H](O)[C@@H]2O)c(=O)nc1N`, for which the Tm turned out to be 49.5 °C in [7] and 62 °C in [8]. Also, the ΔTm in assay [9] was 5 °C; in assay [10], 8.5 °C; in [11] it was -27 °C; in [12] it was -31 °C; in [13], -31.5 °C. Also, the fold change (FC) in assay [5] and in assay [6] was 3.6 in each case.

Turning to `Cc1cn([C@H]2C[C@H](OP(=O)(O)OC[C@H]3O[C@@H](n4ccc(N)nc4=O)[C@H](O)[C@@H]3OP(=O)(O)OC[C@H]3O[C@@H](n4cnc5c(N)ncnc54)[C@H](O)[C@@H]3OP(=O)(O)OC[C@H]3O[C@@H](n4ccc(N)nc4=O)[C@H](O)[C@@H]3O)[C@@H](COP(=O)(O)O[C@H]3[C@@H](O)[C@H](n4ccc(N)nc4=O)O[C@@H]3COP(=O)(O)O[C@H]3C[C@H](n4cc(C)c(=O)[nH]c4=O)O[C@@H]3COP(=O)(O)O[C@H]3[C@@H](O)[C@H](n4cnc5c(N)ncnc54)O[C@@H]3COP(=O)(O)O[C@H]3[C@@H](O)[C@H](n4ccc(N)nc4=O)O[C@@H]3COP(=O)(O)O[C@H]3[C@@H](O)[C@H](n4cnc5c(=O)[nH]c(N)nc54)O[C@@H]3COP(=O)(O)O)O2)c(=O)[nH]c1=O`, the Tm in assay [7] worked out at 34.5 °C; in assay [8], 36.5 °C. Moreover, the ΔTm is < -24.5 °C in assay [11]; < -24.5 °C in assay [12]; -21.5 °C in assay [13]; -23.5 °C in assay [14]; < -26.5 °C in assay [15]; < -26.5 °C in assay [16].

Take `Cc1cn([C@@H]2O[C@@]3(COP(=O)(O)O[C@H]4C[C@H](n5cc(C)c(=O)[nH]c5=O)O[C@@H]4COP(=O)(O)O[C@H]4[C@@H]5[C@H](n6cc(C)c(N)nc6=O)O[C@@]4(COP(=O)(O)O[C@H]4C[C@H](n6cc(C)c(=O)[nH]c6=O)O[C@@H]4COP(=O)(O)O[C@H]4[C@@H](O)[C@H](n6cnc7c(N)ncnc76)O[C@@H]4COP(=O)(O)O[C@H]4[C@@H](O)[C@H](n6ccc(N)nc6=O)O[C@@H]4COP(=O)(O)O[C@H]4[C@@H](O)[C@H](n6cnc7c(=O)[nH]c(N)nc76)O[C@@H]4COP(=O)(O)O)CN5C(=O)c4ccc5ccc6cccc7ccc4c5c67)CN(C(=O)c4ccc5ccc6cccc7ccc4c5c67)[C@@H]2[C@@H]3OP(=O)(O)OC[C@H]2O[C@@H](n3cnc4c(N)ncnc43)[C@H](O)[C@@H]2OP(=O)(O)OC[C@H]2O[C@@H](n3ccc(N)nc3=O)[C@H](O)[C@@H]2O)c(=O)nc1N`: the Tm is 43 °C in assay [7] and 52.5 °C in [8]. The ΔTm is 4.5 °C in [9]; 8 °C in [10]; -27 °C in [11]; -30 °C in assay [12]; -30 °C in assay [13]. The fold change (FC) in [5] and in assay [6] was 3.6 throughout.
